Source: patent publication US20250170090A1, “METHOD FOR PREVENTING OR TREATING DISEASE OR DISORDER ASSOCIATED WITH ANTINEOPLASTIC AGENT” (ONQUALITY PHARMACEUTICALS CHINA LTD., priority 2022, published 2025)

What was measured:
[1] = tested on: gastric epithelial cells (GES-1); assay: CCK-8 cell viability: alleviation of proliferative toxicity of anti-tumor agents on GES-1 (Table 8-3); format: cell-based, human; conditions: NO-NSAID 100 μM
Procedure: (§1) Experiments were conducted using various epithelial cells: Examples 47-51 used human immortalized keratinocytes (HaCaT) with corresponding results in Table 8-1; Examples 52-56 used human oral keratinocytes (HOK) with results in Table 8-2; Examples 57-61 used gastric epithelial cells (GES-1) with results in Table 8-3; Examples 62-66 used human intestinal epithelial cells (FHs 74 Int) with results in Table 8-4.
(§2) The cultured cells were digested the suspended, counted, and seed into a 96-well plate with 5,000-10,000 cells per well. The wells are divided into the following groups: blank control group, anti-tumor agent group, anti-tumor agent+NO-NSAID group, anti-tumor agent solvent group, NO-NSAID solvent control group. Wherein each well of each group contained a basic medium, and the final liquid volume contained in each well was about 100 μL. The grouping situation was as follows: • 1) Blank control group: no solution was added except normally replacing the medium; • 2) Anti-tumor agent group: added the anti-tumor agent solution (the final concentration was shown in Table 8-1 to Table 8-4, the solvent of the anti-tumor agent solution was DMSO); • 3) Anti-tumor agent+NO-NSAID group: added the anti-tumor agent solution and the NO-NSAID solution (the final concentrations of anti-tumor agent and NO-NSAID were shown in Table 8-1 to Table 8-4, and according to the solubility of NO-NSAID, the solvent of NO-NSAID solution was selected as ethanol or sterile water, and minor volume differences in each group were adjusted by added the corresponding solvent); • 4) Anti-tumor agent solvent group: an equal volume of DMSO as contained in the corresponding anti-tumor agent solution in Group 2) was added; • 5) NO-NSAID control group: the same volume and type of solvent (for example, ethanol or sterile water) corresponding to the NO-NSAID contained in group 3) was added.
(§3) The anti-tumor agent solvent group was not involved in data processing and was only used as a reference for evaluating experimental system error. The NO-NSAID solvent control group was used for data correction to eliminate the influence of the solvent on the results.
(§4) After culturing for 24-48 hours, the Cell Counting Kit-8 (CCK-8) detection kit (C0037, Shanghai Beyotime Biotechnology Co., Ltd., Beyotime Biotechnology) was used to determine the cell viability. This allows for the calculation of the proliferative toxicity of anti-tumor agent on cell and the mitigating effect of NO-NSAID on proliferative toxicity. The results were statistically analyzed and plotted using GraphPad Prism 6.0 software and t test.

[2] = tested on: human immortalized keratinocytes (HaCaT); assay: CCK-8 cell viability: alleviation of proliferative toxicity of anti-tumor agents on HaCaT (Table 8-1); format: cell-based; conditions: NO-NSAID 100 μM, percentage increase in viable cells vs anti-tumor agent alone
Procedure: as §1, §2, §3, §4

[3] = tested on: human oral keratinocytes (HOK); assay: CCK-8 cell viability: alleviation of proliferative toxicity of anti-tumor agents on HOK (Table 8-2); format: cell-based; conditions: NO-NSAID 100 μM
Procedure: as §1, §2, §3, §4

[4] = tested on: human intestinal epithelial cells (FHs 74 Int); assay: CCK-8 cell viability: alleviation of proliferative toxicity of anti-tumor agents on FHs 74 Int (Table 8-4); format: cell-based; conditions: NO-NSAID 100 μM
Procedure: as §1, §2, §3, §4

[5] = tested on: chemotherapy-induced hand-foot syndrome; assay: Prevention of chemotherapy-induced hand-foot syndrome in rat models (Table 5); format: in vivo, SD rats
Procedure: Rat animal model was constructed. After several days, the rats develop hand-foot syndrome in their paws. After one week of acclimatization (about 200 g), the SD rats are divided into groups of 10 rats each, followed by gavage administration experiment. The chemotherapy drugs were dissolved, and each rat was given a gavage dose of 1 mL/100 g. After gavage, the rats were fixed with a fixed cylinder. NO-NSAID ointment was applied to the paws of the rats in the medication group, and blank ointment was applied to the paws of the rats in the blank group (as blank control). […] Table 5 lists the animal experimental combinations of chemotherapy drugs and NO-NSAID ointment, as well as the corresponding experimental results (where the value in the control rate column=the incidence rate of hand-foot syndrome in the blank group−the incidence rate of hand-foot syndrome in the treatment group).

[6] = tested on: hand-foot syndrome caused by anti-tumor agents; assay: Treatment of established hand-foot syndrome caused by anti-tumor agents in rats (Table 4); format: in vivo; conditions: Encorafenib 80 mg/kg once every two days; ointment 1% wt; Days 7
Procedure: After the rats (about 200 g) were fed and adapted for one week, the rats were divided into groups of 10 rats for gavage administration experiment. The anti-tumor agent was dissolved in a mixed solution of Cremophor EL:ethanol=1:1, and diluted with PBS to the required concentration (diluted about 3 times with PBS solution) before gavage. […] Specific experimental procedures followed those outlined in the prevention experiment. […] Table 4 lists the animal experiments using various anti-tumor agents and NO-NSAID ointment, as well as the corresponding experimental results (where the value in the control rate column=the incidence rate of hand-foot syndrome in the blank group−the incidence rate of hand-foot syndrome in the treatment group).

[7] = Capecitabine 4000 mg/kg once a day, ointment 2% wt, Days 40

For CC(C)Cc1ccc(C(C)C(=O)OCO/N=[N+](\[O-])N(C)C)cc1 (centres unmarked) [Compound A4], the “Response rate % (average)” value ([1]; Afatinib (10 μM)) was 16%, the “Response rate % (average)” value ([1]; Cabozantinib (5 μM)) was 29% and the “Response rate % (average)” value ([1]; Dabrafenib (10 μM)) was 6%. The “Response rate % (average)” value ([1]; Everolimus (5 μM)) was 23%, the “Response rate % (average)” value ([1]; Infigratinib (15 μM)) was 36% and the “Response rate % (average)” value ([1]; Lapatinib (5 μM)) was 22%. For the same compound, the “Response rate % (average)” value ([1]; Lenvatinib (10 μM)) was 36%, the “Response rate % (average)” value ([1]; Olmutinib (10 μM)) was 21% and the “Response rate % (average)” value ([1]; Regorafenib (5 μM)) was 29%. For the same compound, the “Response rate % (average)” value ([1]; Selumetinib (5 μM)) was 2%, the “Response rate % (average)” value ([1]; Sorafenib (5 μM)) was 22% and the “Response rate % (average)” value ([1]; Sunitinib (5 μM)) was 0%. The “Response rate % (average)” value ([2]; Afatinib (10 μM)) was 31%, the “Response rate % (average)” value ([2]; Cabozantinib (5 μM)) was 37% and the “Response rate % (average)” value ([2]; Dabrafenib (10 μM)) was 1%. The “Response rate % (average)” value ([2]; Everolimus (5 μM)) was −4%, the “Response rate % (average)” value ([2]; Infigratinib (15 μM)) was 12% and the “Response rate % (average)” value ([2]; Lapatinib (5 μM)) was 25%. The “Response rate % (average)” value ([2]; Lenvatinib (10 μM)) was 17%, the “Response rate % (average)” value ([2]; Olmutinib (10 μM)) was 26% and the “Response rate % (average)” value ([2]; Regorafenib (5 μM)) was 36%. The “Response rate % (average)” value ([2]; Selumetinib (5 μM)) was 3%, the “Response rate % (average)” value ([2]; Sorafenib (5 μM)) was 32% and the “Response rate % (average)” value ([2]; Sunitinib (5 μM)) was 16%. For the same compound, the “Response rate % (average)” value ([3]; Afatinib (10 μM)) was 34%, the “Response rate % (average)” value ([3]; Cabozantinib (5 μM)) was 24% and the “Response rate % (average)” value ([3]; Dabrafenib (10 μM)) was 2%. The “Response rate % (average)” value ([3]; Everolimus (5 μM)) was −3%, the “Response rate % (average)” value ([3]; Infigratinib (15 μM)) was 18% and the “Response rate % (average)” value ([3]; Lapatinib (5 μM)) was 0%. For the same compound, the “Response rate % (average)” value ([3]; Lenvatinib (10 μM)) was 33%, the “Response rate % (average)” value ([3]; Olmutinib (10 μM)) was 24% and the “Response rate % (average)” value ([3]; Regorafenib (5 μM)) was 15%. For the same compound, the “Response rate % (average)” value ([3]; Selumetinib (5 μM)) was −2%, the “Response rate % (average)” value ([3]; Sorafenib (5 μM)) was 29% and the “Response rate % (average)” value ([3]; Sunitinib (5 μM)) was 11%. For the same compound, the “Response rate % (average)” value ([4]; Afatinib (10 μM)) was 33%, the “Response rate % (average)” value ([4]; Cabozantinib (5 μM)) was 28% and the “Response rate % (average)” value ([4]; Dabrafenib (10 μM)) was −9%. The “Response rate % (average)” value ([4]; Everolimus (5 μM)) was 18%, the “Response rate % (average)” value ([4]; Infigratinib (15 μM)) was 17% and the “Response rate % (average)” value ([4]; Lapatinib (5 μM)) was 26%. For the same compound, the “Response rate % (average)” value ([4]; Lenvatinib (10 μM)) was 38%, the “Response rate % (average)” value ([4]; Olmutinib (10 μM)) was 16% and the “Response rate % (average)” value ([4]; Regorafenib (5 μM)) was 31%. For the same compound, the “Response rate % (average)” value ([4]; Selumetinib (5 μM)) was 14%, the “Response rate % (average)” value ([4]; Sorafenib (5 μM)) was 24% and the “Response rate % (average)” value ([4]; Sunitinib (5 μM)) was 23%. For the same compound, the Control rate ([5]; Capecitabine 4000 mg/kg once a day, ointment 0.50% wt, Days 40) was 25.00%, the Control rate [5, 7] was 57.14% and the Control rate ([5]; Cytarabine 120 mg/kg twice a day, ointment 0.50% wt, Days 30) was 28.57%.

With CC(=O)Oc1ccccc1C(=O)OCc1no[n+]([O-])c1C(N)=O [Compound A6] the Response rate [6] was 16.67% and the Control rate [5, 7] was 42.86%.
